Assay [1] has as its target 6×HIS-tankyrase 2 (946-1162) (Homo sapiens (Human), UniProt Q9H2K2). Kind of assay: Tankyrase 2 biochemical assay (AlphaLisa, PARsylation). The conditions noted are these: 250 nM NAD; read-out: TNKS2 IC50. (In general: Bead proximity is the source of the signal in Alpha formats.)
Assay [2] deals with 6×HIS-tankyrase1 (1091-1325) (Homo sapiens (Human), UniProt O95271). Description: Tankyrase 1 biochemical assay (AlphaLisa, PARsylation). Conditions: 400 nM NAD, 60 minutes at RT; read-out: TNKS1 IC50.
For the next assay, the target named is PARP1 (Homo sapiens (Human), UniProt P09874). Description: PARP1 biochemical assay (Trevigen kit). From the text:
PARP1 biochemical assay was purchased as a kit from Trevigen (cat.#4676-096-K) and used per manufacturers recommendations.

The next assay concerns the target PARP2 (Homo sapiens (Human), UniProt Q9UGN5). Kind of assay: PARP2 biochemical assay (BPS kit).
Assay [3] relates to Axin2 accumulation in SW480 cells. Description: Axin2 384 immunofluorescence assay. The format is cell-based. The conditions noted are these: Homo sapiens; SW480 cells, 24 hours; read-out: Axin2 384 IF EC50.
Assay [4] deals with total β-catenin in SW480 colorectal cells. Kind of assay: Total β-catenin MSD 96-well plate assay for SW480 cells. The conditions noted are these: Homo sapiens, SW480, read-out: SW480-Total beta-catenin (TBC) IC50 IP.

Molecules are shown by their SMILES.

Sequence of PARP1 (P09874 whole entry): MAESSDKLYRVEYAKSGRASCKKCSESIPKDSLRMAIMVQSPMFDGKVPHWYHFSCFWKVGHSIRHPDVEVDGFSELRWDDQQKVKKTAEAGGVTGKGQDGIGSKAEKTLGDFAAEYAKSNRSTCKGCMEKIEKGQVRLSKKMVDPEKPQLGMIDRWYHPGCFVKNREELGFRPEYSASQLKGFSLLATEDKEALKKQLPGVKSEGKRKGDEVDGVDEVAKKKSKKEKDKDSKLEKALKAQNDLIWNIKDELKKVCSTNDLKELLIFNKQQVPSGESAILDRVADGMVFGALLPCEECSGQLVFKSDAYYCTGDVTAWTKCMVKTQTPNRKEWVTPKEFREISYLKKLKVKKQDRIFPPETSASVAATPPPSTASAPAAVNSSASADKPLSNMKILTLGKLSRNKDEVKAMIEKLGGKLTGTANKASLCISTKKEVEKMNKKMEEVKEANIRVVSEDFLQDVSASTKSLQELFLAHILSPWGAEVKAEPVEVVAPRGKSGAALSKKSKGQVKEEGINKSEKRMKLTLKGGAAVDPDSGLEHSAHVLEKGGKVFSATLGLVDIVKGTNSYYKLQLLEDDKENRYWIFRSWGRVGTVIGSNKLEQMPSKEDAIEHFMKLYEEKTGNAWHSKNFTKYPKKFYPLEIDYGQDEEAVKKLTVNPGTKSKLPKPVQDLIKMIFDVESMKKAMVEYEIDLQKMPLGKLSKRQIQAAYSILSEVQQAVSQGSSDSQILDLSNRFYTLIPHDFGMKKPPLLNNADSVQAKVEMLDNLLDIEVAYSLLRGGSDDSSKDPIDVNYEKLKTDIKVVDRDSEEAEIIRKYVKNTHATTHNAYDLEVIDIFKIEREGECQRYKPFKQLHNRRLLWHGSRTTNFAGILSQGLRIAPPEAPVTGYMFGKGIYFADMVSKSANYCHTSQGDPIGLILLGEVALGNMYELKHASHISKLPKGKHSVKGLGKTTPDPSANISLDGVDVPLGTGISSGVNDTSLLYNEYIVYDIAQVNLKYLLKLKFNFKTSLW
Sequence of 6×HIS-tankyrase 2 (946-1162) (Q9H2K2 946-1162): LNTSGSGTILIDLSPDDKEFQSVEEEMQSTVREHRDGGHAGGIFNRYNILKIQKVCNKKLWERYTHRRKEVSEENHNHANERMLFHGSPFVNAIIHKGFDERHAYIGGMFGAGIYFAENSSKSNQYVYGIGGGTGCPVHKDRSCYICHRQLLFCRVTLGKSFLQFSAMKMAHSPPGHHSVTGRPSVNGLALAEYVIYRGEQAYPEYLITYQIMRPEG
Sequence of 6×HIS-tankyrase1 (1091-1325) (O95271 1091-1325): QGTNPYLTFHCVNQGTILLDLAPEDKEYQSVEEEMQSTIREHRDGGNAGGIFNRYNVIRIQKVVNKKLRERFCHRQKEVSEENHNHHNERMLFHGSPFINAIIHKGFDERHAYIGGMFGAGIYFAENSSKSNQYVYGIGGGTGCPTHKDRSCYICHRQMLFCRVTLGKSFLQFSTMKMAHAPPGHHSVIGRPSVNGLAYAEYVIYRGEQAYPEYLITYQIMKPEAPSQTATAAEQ
Sequence of PARP2 (Q9UGN5 whole entry): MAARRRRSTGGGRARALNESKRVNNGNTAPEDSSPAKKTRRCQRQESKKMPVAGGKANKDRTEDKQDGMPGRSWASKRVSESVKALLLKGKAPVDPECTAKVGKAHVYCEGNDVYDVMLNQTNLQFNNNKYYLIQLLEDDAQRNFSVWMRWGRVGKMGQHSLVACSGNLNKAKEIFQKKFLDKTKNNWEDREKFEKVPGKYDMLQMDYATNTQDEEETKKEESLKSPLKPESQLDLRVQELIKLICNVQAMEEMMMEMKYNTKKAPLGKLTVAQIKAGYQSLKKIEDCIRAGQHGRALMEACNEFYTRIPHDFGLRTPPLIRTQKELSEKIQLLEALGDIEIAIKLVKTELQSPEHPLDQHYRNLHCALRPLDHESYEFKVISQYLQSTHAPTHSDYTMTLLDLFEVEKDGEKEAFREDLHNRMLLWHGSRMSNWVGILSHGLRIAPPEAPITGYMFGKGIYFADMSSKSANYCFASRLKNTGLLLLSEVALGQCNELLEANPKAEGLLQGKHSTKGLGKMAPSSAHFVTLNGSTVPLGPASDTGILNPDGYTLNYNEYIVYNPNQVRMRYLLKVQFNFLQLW

Take `O=C(CCCc1nc2ccccc2c(=O)[nH]1)N[C@H]1CC[C@H](c2nnc(-c3cccc(F)c3)o2)CC1` [Example 31, N-(trans-4-(5-(3-fluorophenyl)-1,3,4-oxadiazol-2-yl)cyclohexyl)-4-(4-oxo-3,4-dihydro-2-quinazolinyl)butanamide]: the IC50 (in general, the point on the concentration scale where inhibition reaches its midpoint) was 0.237 nM in assay [1]; 0.469 nM in assay [2]; 1050 nM at PARP1; 1150 nM at PARP2; 24.8 nM in assay [4]. Moreover, the EC50 (usually the midpoint of the concentration-response curve) in assay [3] was 30.9 nM.

For `O=C(CCCc1nc2ccccc2c(=O)[nH]1)N1CCC(c2nnc(-c3ccc(F)cc3)o2)CC1` [Example 6, 2-(4-(4-(5-(4-fluorophenyl)-1,3,4-oxadiazol-2-yl)piperidin-1-yl)-4-oxobutyl)quinazolin-4(3H)-one], the IC50 in assay [1] stood at 2.59 nM; in assay [2] it was 18.8 nM; on PARP1, 5410 nM; on PARP2, 783 nM; in assay [4], 63.9 nM. For the same compound, the EC50 in assay [3] amounted to 247 nM.

For the compound `Cc1cccc(-c2nnc(C3CCN(C(=O)CCCc4nc5ccccc5c(=O)[nH]4)CC3)o2)c1` [Example 22, 2-(4-oxo-4-(4-(5-(m-tolyl)-1,3,4-oxadiazol-2-yl)piperidin-1-yl)butyl)quinazolin-4(3H)-one], the IC50 in assay [1] came to 4.13 nM; in assay [2] it was 19.4 nM; at PARP1 it was 3130 nM; at PARP2 it was 1590 nM; in assay [4], 217 nM. For the same compound, in assay [3], the concentration giving a half-maximal response (EC50) worked out at 333 nM.

On to `O=C(CCCc1nc2ccccc2c(=O)[nH]1)N1CCC(n2c(=O)oc3cc(F)ccc32)CC1` [Example 53, 2-(4-(4-(6-fluoro-2-oxo-1,3-benzoxazol-3(2H)-yl)-1-piperidinyl)-4-oxobutyl)-4(3H)-quinazolinone trifluoroacetic acid], for which the IC50 in assay [1] turned out to be 0.593 nM; in assay [2], 3.17 nM; on PARP1, 2570 nM; against PARP2, 998 nM; in assay [4], 50.3 nM. Further, the half-maximal effective concentration (EC50) in assay [3] was 359 nM.

Turning to `N#Cc1cccc(O[C@H]2CC[C@H](NC(=O)CCCc3nc4ccccc4c(=O)[nH]3)CC2)c1` [Example 58, N-(trans-4-(3-cyanophenoxy)cyclohexyl)-4-(4-oxo-3,4-dihydro-2-quinazolinyl)butanamide], the half-inhibitory concentration (IC50) in assay [1] was determined as 1.25 nM; in assay [2], 3.26 nM; at PARP1 it was 1580 nM; against PARP2 it was 983 nM; in assay [4], 98.9 nM. The EC50 in assay [3] is 354 nM.

Regarding `O=C(CCCc1nc2ccccc2c(=O)[nH]1)N1CCC(c2nnc(-c3ccccc3)s2)CC1` [Example 9, 2-(4-oxo-4-(4-(5-phenyl-1,3,4-thiadiazol-2-yl)-1-piperidinyl)butyl)-4(3H)-quinazolinone], the concentration for half-maximal inhibition (IC50) was 18.5 nM in assay [1]; 168 nM in assay [2]; 2860 nM against PARP1; 471 nM against PARP2; 56.6 nM in assay [4]. Besides, the concentration for a half-maximal effect (EC50) in assay [3] was found to be 1230 nM.

Turning to `O=C(CCCc1nc2ccccc2c(=O)[nH]1)N[C@H]1CC[C@H](c2nnc(-c3ccc(Cl)cc3)o2)CC1` [Example 29, N-(trans-4-(5-(4-chlorophenyl)-1,3,4-oxadiazol-2-yl)cyclohexyl)-4-(4-oxo-3,4-dihydro-2-quinazolinyl)butanamide], the IC50 in assay [1] stood at 0.43 nM; in assay [2], 0.549 nM; at PARP1 it was 1670 nM; against PARP2, 889 nM; in assay [4], 14.9 nM. Also, the EC50 in assay [3] amounted to 30.2 nM.

As to `Cc1ccc(-c2nnc(C3CCN(C(=O)CCCc4nc5ccccc5c(=O)[nH]4)CC3)o2)cc1` [Example 23, 2-(4-oxo-4-(4-(5-(p-tolyl)-1,3,4-oxadiazol-2-yl)piperidin-1-yl)butyl)quinazolin-4(3H)-one], the IC50 is 6.31 nM in assay [1]; 656 nM in assay [2]; 3300 nM against PARP1; 455 nM on PARP2; 152 nM in assay [4]. In assay [3], the EC50 worked out at 601 nM.

On to `Nc1cc(=O)[nH]c(SCCC(=O)N[C@H]2CC[C@H](c3nnc(-c4ccccc4)o3)CC2)n1` [Example 91, 3-((4-amino-6-oxo-1,6-dihydro-2-pyrimidinyl)sulfanyl)-N-(trans-4-(5-phenyl-1,3,4-oxadiazol-2-yl)cyclohexyl)propanamide], for which the IC50 was 8.78 nM in assay [1]; 3.97 nM in assay [2]; more than 85000 nM against PARP1; more than 170000 nM against PARP2; 1680 nM in assay [4]. Further, in assay [3], the EC50 is 1020 nM.

As for `O=C(CCCc1nc2ccccc2c(=O)[nH]1)N1CCC(n2c(=O)[nH]c3ccccc32)CC1` [Example 41, 2-(4-oxo-4-(4-(2-oxo-2,3-dihydro-1H-benzimidazol-1-yl)-1-piperidinyl)butyl)-4(3H)-quinazolinone trifluoroacetic acid], the IC50 in assay [1] amounted to 4.91 nM; in assay [2] it was 8.05 nM; against PARP1, 1490 nM; at PARP2 it was 500 nM; in assay [4] it was 1710 nM. Further, in assay [3], the EC50 amounted to 3380 nM.

For `O=C(CCCc1nc2ccccc2c(=O)[nH]1)N[C@H]1CC[C@H](Oc2cccnc2)CC1` [Example 59, 4-(4-oxo-3,4-dihydro-2-quinazolinyl)-N-(trans-4-(3-pyridinyloxyl)cyclohexyl)butanamide], the IC50 in assay [1] worked out at 2.39 nM; in assay [2], 11.8 nM; against PARP1, 1900 nM; at PARP2 it was 371 nM; in assay [4], 208 nM. Also, in assay [3], the EC50 was determined as 951 nM.

As for `O=C(CCCc1nc2ccccc2c(=O)[nH]1)N1CCC(n2c(=O)sc3ccccc32)CC1` [Example 50, 2-(4-oxo-4-(4-(2-oxo-1,3-benzothiazol-3(2H)-yl)-1-piperidinyl)butyl)-4(3H)-quinazolinone trifluoroacetic acid], the IC50 in assay [1] amounted to 1.81 nM; in assay [2], 6.49 nM; against PARP1, 10700 nM; at PARP2 it was 748 nM; in assay [4], 256 nM. Besides, the EC50 in assay [3] was found to be 1550 nM.

Regarding `O=C(CCCc1nc2ccccc2c(=O)[nH]1)N[C@H]1CC[C@H](c2nnc(-c3ccncc3)o2)CC1` [Example 33, 4-(4-oxo-3,4-dihydro-2-quinazolinyl)-N-(trans-4-(5-(4-pyridinyl)-1,3,4-oxadiazol-2-yl)cyclohexyl)butanamide], the IC50 in assay [1] was 0.341 nM; in assay [2] it was 0.453 nM; on PARP1, 2840 nM; against PARP2 it was 1140 nM; in assay [4], 34.8 nM. Further, the EC50 in assay [3] was found to be 25.7 nM.

Regarding `COc1ccc(-c2nnc([C@H]3CC[C@H](NC(=O)CCSc4nc5ccccc5c(=O)[nH]4)CC3)o2)cc1` [Example 121, N-((1r,4r)-4-(5-(4-methoxyphenyl)-1,3,4-oxadiazol-2-yl)cyclohexyl)-3-((4-oxo-3,4-dihydroquinazolin-2-yl)thio)propanamide], the IC50 amounted to 18.1 nM in assay [1]; 0.0724 nM in assay [2]; 4430 nM against PARP1; 6780 nM against PARP2; 1.1 nM in assay [4]. In assay [3], the EC50 stood at 1.98 nM.

For `O=C(CCSc1nc2ccccc2c(=O)[nH]1)N[C@H]1CC[C@H](c2nnc(-c3ccc(F)c(Cl)c3)o2)CC1` [Example 122, N-((1r,4r)-4-(5-(3-chloro-4-fluorophenyl)-1,3,4-oxadiazol-2-yl)cyclohexyl)-3-((4-oxo-3,4-dihydroquinazolin-2-yl)thio)propanamide], the IC50 in assay [1] is 1.38 nM; in assay [2], 0.153 nM; against PARP1, more than 9440 nM; at PARP2, 7690 nM; in assay [4], 3.04 nM. Besides, in assay [3], the EC50 stood at 4.47 nM.

On to `O=C(CCCSc1nc2ccccc2c(=O)[nH]1)N1CCC(c2nnc(-c3ccccc3)o2)CC1` [Example 111, 2-((4-oxo-4-(4-(5-phenyl-1,3,4-oxadiazol-2-yl)piperidin-1-yl)butyl)thio)quinazolin-4(3H)-one], for which the IC50 in assay [1] was 29.5 nM; in assay [2], 88.4 nM; against PARP1, 7630 nM; at PARP2 it was 4670 nM; in assay [4], more than 10000 nM. Also, the EC50 in assay [3] came out at 2950 nM.

Consider `O=C(CCCc1nc2ccccc2c(=O)[nH]1)N1CCC(n2c(=O)[nH]c3ncccc32)CC1` [Example 47, 2-(4-oxo-4-(4-(2-oxo-2,3-dihydro-1H-imidazo[4,5-b]pyridin-1-yl)-1-piperidinyl)butyl)-4(3H)-quinazolinone trifluoroacetic acid], for which the IC50 in assay [1] is 1.18 nM; in assay [2], 3.97 nM; against PARP1 it was 2440 nM; on PARP2, 1590 nM; in assay [4], 233 nM. In addition, the EC50 in assay [3] stood at 1270 nM.

Consider `COc1cccc(-c2nnc(C3CCN(C(=O)CCCc4nc5ccccc5c(=O)[nH]4)CC3)o2)c1` [Example 24, 2-(4-(4-(5-(3-methoxyphenyl)-1,3,4-oxadiazol-2-yl)piperidin-1-yl)-4-oxobutyl)quinazolin-4(3H)-one], for which the concentration for half-maximal inhibition (IC50) in assay [1] was 4.95 nM; in assay [2], 18.8 nM; against PARP1, 1690 nM; against PARP2 it was 1110 nM; in assay [4], 226 nM. Moreover, the EC50 in assay [3] turned out to be 257 nM.

As for `O=C(CCCc1nc2ccccc2c(=O)[nH]1)N[C@H]1CC[C@H](Oc2ccc(Cl)cc2)CC1` [Example 79, N-(trans-4-(4-chlorophenoxy)cyclohexyl)-4-(4-oxo-3,4-dihydro-2-quinazolinyl)butanamide], the half-maximal inhibitory concentration (IC50) in assay [1] is 0.614 nM; in assay [2], 2.85 nM; against PARP1, 2550 nM; against PARP2 it was 292 nM; in assay [4], 42.3 nM. Besides, in assay [3], the EC50 amounted to 192 nM.
